Measurements reported in ChEMBL document CHEMBL1147669, “Synthesis of biphenyltrienes as probes for beta-amyloid plaques” (J Med Chem, 2006).

Key:
[1] = target: T1, Amyloid-beta precursor protein (Homo sapiens, UniProt P05067); test: Displacement of [125I]2-(4'-dimethylaminophenyl)-6-iodoimidazo[1,2-a]pyridine from beta amyloid peptide in brain tissue at 50 uL; type: tissue-based
[2] = target: T1, Amyloid-beta precursor protein; test: Displacement of [125I](E,E)-1-iodo-2,5-bis-(3-hydroxycarbonyl-4-methoxy)styrylbenzene from beta amyloid peptide in brain tissue at 50 uL; type: tissue-based

T1 sequence (P05067 whole entry): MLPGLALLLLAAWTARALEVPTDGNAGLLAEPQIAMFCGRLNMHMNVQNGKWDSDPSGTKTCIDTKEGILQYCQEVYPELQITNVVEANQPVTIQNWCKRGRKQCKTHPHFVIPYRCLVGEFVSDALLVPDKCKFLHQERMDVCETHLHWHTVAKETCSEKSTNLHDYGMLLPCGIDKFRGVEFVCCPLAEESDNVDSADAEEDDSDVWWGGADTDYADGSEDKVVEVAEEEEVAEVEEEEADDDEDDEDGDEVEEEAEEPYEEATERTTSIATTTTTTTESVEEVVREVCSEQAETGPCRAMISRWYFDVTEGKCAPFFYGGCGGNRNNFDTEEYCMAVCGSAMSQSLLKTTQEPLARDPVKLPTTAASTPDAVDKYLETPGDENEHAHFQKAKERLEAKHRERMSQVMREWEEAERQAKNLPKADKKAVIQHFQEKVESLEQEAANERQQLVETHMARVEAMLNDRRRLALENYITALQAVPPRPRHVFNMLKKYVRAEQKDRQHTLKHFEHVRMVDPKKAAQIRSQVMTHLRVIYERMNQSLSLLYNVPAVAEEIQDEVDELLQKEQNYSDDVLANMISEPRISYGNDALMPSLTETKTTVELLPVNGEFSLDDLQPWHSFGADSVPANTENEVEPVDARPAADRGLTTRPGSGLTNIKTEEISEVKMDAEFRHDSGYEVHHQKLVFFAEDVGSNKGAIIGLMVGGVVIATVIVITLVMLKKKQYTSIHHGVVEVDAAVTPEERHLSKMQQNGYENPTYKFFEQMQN

Compound	Ki [1] [nM]	Ki [2] [nM]
O=[N+]([O-])c1ccc(/C=C/C=C/C=C/c2ccc([N+](=O)[O-])cc2)cc1	500	> 4000
COc1ccc(/C=C/c2ccc(/C=C/c3ccc(OC)c(C(=O)O)c3)c(I)c2)cc1C(=O)O	> 1000	5.1
CN(C)c1ccc(/C=C/C=C/C=C/c2ccc(N(C)C)cc2)cc1	837	> 7000
COc1ccc(/C=C/C=C/C=C/c2ccc(OC)cc2)cc1	> 4000	> 8000

Now those with a lower Ki [1], led by results:

Ki [1] [nM]	Ki [2] [nM]	Compound
152	> 8000	CC(=C(C#N)C#N)c1ccc2cc(N(C)CCF)ccc2c1
12	217	Nc1ccc(/C=C/C=C/C=C/c2ccc(NCCF)cc2)cc1
9	375	Nc1ccc(/C=C/C=C/C=C/c2ccc(N)cc2)cc1
9	150	Oc1ccc(/C=C/C=C/C=C/c2ccc(O)cc2)cc1
7.5	122	CNc1ccc(/C=C/C=C/C=C/c2ccc(NC)cc2)cc1
